In publication PMC10609163, “Exploring the HIV-1 Rev Recognition Element (RRE)–Rev Inhibitory Capacity and Antiretroviral Action of Benfluron Analogs” (Molecules, 2023):
Several values for one entry are separate records, joined by “and”; a condition that tells them apart may be missing. Identical values can stand only once. Like-named read-outs stand apart in the source and are kept apart here.

What was measured:
[1] = molecular target: RRE subdomain IIB; test: Fluorescence binding to fluorescein-labeled (U23) RRE subdomain IIB RNA hairpin; parameters: species or system HIV-1; conditions: RRE IIB hairpin labeled with fluorescein at U23; 100 nM RNA, pH 6.6; 95% CI and R2 in parentheses
Method: These experiments measured compound association to an RRE subdomain IIB RNA oligonucleotide labeled with fluorescein at extrahelical loop nucleotide U23 (Figure 1) and were carried out in a Spectramax iD5 microplate reader (Molecular Devices) using 100 nM RNA dissolved in 10 mM sodium phosphate, pH 6.6, and 0.1 mM EDTA, as described before. The equilibrium dissociation constants, Kd, were determined by fitting the fluorescence intensity curves to a two-state binding model with GraphPad Prism software. […] All fluorescence experiments were carried out at least three times for each compound.

[2] = test system: full-length RRE–Rev complex; test: EMSA of full-length RRE–Rev complex formation inhibition; type: biochemical, HIV-1; conditions: low-order RRE–Rev complex EMSA bands; 70 nM RRE, 0.75 µM Rev; 95% CI and R2 in parentheses
Method: These assays were used to monitor full-length RRE–Rev inhibition and involved the viral protein Rev and a 234 nt RRE sequence (Figure 1), obtained as reported previously. RRE was prepared in native conditions using a procedure based on electrophoresis. The reactions used 70 nM RRE and 0.75 μM Rev dissolved in an aqueous solution containing 10 mM HEPES, pH 7.5, 300 mM KCl, 1 mM MgCl2 and 0.5 mM EDTA, and the samples were loaded onto 8% polyacrylamide gels with TB running buffer. Gels were run at 4 °C for 3 h at 150 V, and the bands were stained with SYBR Gold and quantified with ImageJ software. In all cases, we monitored the disappearance of the bands corresponding to low-order RRE–Rev complexes (Figure 4A) using a sigmoidal inhibitory model and GraphPad Prism. At least three independent experiments were conducted for each compound.

[3] = test system: HIV-1NL4-3-Ren; test: Anti-HIV activity in MT-2 cells infected with HIV-1NL4-3-Ren (Renilla luciferase); type: cell-based; conditions: for EC50: Human immunodeficiency virus 1, MT2, 48 h
Method: (§1) The methodology used to perform these experiments in MT-2 cell culture was reported previously. Infectious HIV-1NL4-3-Ren supernatants were obtained from transfection in 293T cells with plasmid pNL4-3-Ren, where a Renilla luciferase reporter gene replaces the nef gene of the wild-type pNL4-3 HIV-1 clone, which includes LTR promoters. MT-2 cells were infected with these supernatants (100,000 RLUs/well) in the presence of the compounds, and anti-HIV activity was quantified 48 h post-infection by determining Renilla luciferase activity in cell lysates compared to a non-treated control (100%), following the manufacturer’s instructions (Renilla Assay System, Promega). Briefly, 100 µL of Renilla Assay System buffer was added to obtain cell lysates, and 35 µL of these lysates was then transferred to a white 96-well microplate. RLUs were recorded after injecting 35 µL of Renilla substrate (10 s reading) using a luminometer (Berthold Detection Systems). Cellular viability was evaluated in mock-infected cells similarly treated with the same concentrations of compounds using the CellTiter-Glo assay (Promega). To assess the antiretroviral activity of benfluron in human primary cells, PBMCs were isolated from healthy donors via Ficoll density gradient centrifugation and subsequently cultured in a PHA (1 µg/mL) and IL-2 (100 U/mL)-enriched medium for 48 h at 37 °C. Activated PBMCs were infected with HIV-1NL4-3 [20] at a multiplicity of infection of 0.001 and cultured in the presence of serial dilutions (5 nM–100 µM) of benfluron. Three days post-infection, the supernatant was collected, and the HIV-inhibitory effect of the drug was measured using the Alliance HIV-1 p24 Antigen Elisa Kit (Perkin Elmer). The toxicity of the compound in PBMCs was evaluated as explained above for MT-2 cells. In both experiments, the potential background toxicity and antiviral effect of the DMSO vehicle used to solubilize the molecule were determined in parallel. In all cases, EC50 and CC50 values were calculated with GraphPad Prism using log(inhibitor) vs. response non-linear curve fitting. All cellular assays were performed in triplicate.

[4] = in vitro; type: cell-based; conditions: human
Method: as §1

[5] = test system: PBMCs; test: in vitro; type: cell-based; conditions: human
Method: as §1

[6] = test system: HIV-1NL4-3; test: Antiretroviral activity in activated PBMCs infected with HIV-1NL4-3 (p24 ELISA); type: cell-based
Method: as §1, with “Briefly, 100 µL of Renilla Assay System buffer was added to obtain cell lysates, and 35 µL of these lysates was then transferred to a white 96-well microplate.” left out, “To assess the antiretroviral activity of benfluron in human primary cells, PBMCs were isolated from healthy donors via Ficoll density gradient centrifugation and subsequently cultured in a PHA (1 µg/mL) and IL-2 (100 U/mL)-enriched medium for 48 h at 37 °C. Activated PBMCs were infected with HIV-1NL4-3 [20] at a multiplicity of infection of 0.001 and cultured in the presence of serial dilutions (5 nM–100 µM) of benfluron.” left out, “In all cases, EC50 and CC50 values were calculated with GraphPad Prism using log(inhibitor) vs. response non-linear curve fitting. All cellular assays were performed in triplicate.” left out

[7] = test system: HIV-1NL4-3-Ren; parameters: method as in PMID 30071201; conditions: MT-2 cells, HIV-1 infection; cited from earlier work
[8] = test system: MT-2 cells; parameters: method as in PMID 30071201; conditions: cited from earlier work

Question: For `CN(C)CCOc1ccc2c(c1)Cc1ccccc1-2` [Compound 3], which Kd [1] is on record?
Answer: 106 µM

Question: What about the IC50 [2] of the same compound?
Answer: > 50 µM

Question: What about the EC50 [3] of the same compound?
Answer: ~100 µM

Question: What about the CC50 at 48 h ([4]; CC50) of the same compound?
Answer: ~100 µM

Question: Which Kd [1] does the source give for `CN(C)CCOc1ccc2c(c1)C(=O)c1ccccc1-2` [Compound 1] here?
Answer: 45.6 µM

Question: And the IC50 [2]?
Answer: > 50 µM

Question: What about the EC50 [3] of the same compound?
Answer: > 100 µM

Question: What about the CC50 at 48 h ([4]; CC50) of the same compound?
Answer: > 100 µM

Question: What does the source list for `CN(C)CCOc1cc2c(c3ccccc13)-c1ccccc1C2=O` [benfluron]?
Answer: Kd [1]: 4.83 µM; IC50 [2]: 5 µM; CC50 ([4]; cytotoxic CC50): 7.1 µM; CC50 [5]: 7.09 µM; selectivity index (SI; CC50/EC50) [6]: 1.3; EC50 ([6]; Human immunodeficiency virus 1, PBMC, 72 h, HIV-1NL4-3, three days post-infection, p24, read-out: antiviral EC50): 5.5 µM; EC50 [7]: 0.83 µM; CC50 [8]: 28.1 µM

Question: Which results are given for `CN(C)CCOc1ccc(-c2ccccc2)c2ccccc12` [Compound 4]?
Answer: Kd [1]: 77.5 µM; IC50 [2]: > 50 µM; EC50 [3]: 17 µM; CC50 at 48 h ([4]; CC50): 28.7 µM

Question: For `CN1CCN(CCOc2cc(C(=O)c3ccccc3)cc3ccccc23)CC1` [Compound 6], which Kd [1] is on record?
Answer: 34 µM

Question: What about the IC50 [2] of the same compound?
Answer: ~45 µM and 45 µM

Question: What about the EC50 [3] of the same compound?
Answer: 24.2 µM

Question: What about the CC50 at 48 h ([4]; CC50) of the same compound?
Answer: 20 to 100 µM

Question: What about the CC50 at 48 h ([4]; MT-2 cells, mock-infected, 95% CI and R2 in parentheses, read-out: CC50) of the same compound?
Answer: 20 to 49.7 µM

Question: What does the source list for `CN(C)CCOc1cc(C(=O)c2ccccc2)cc2ccccc12` [Compound 5]?
Answer: Kd [1]: 95.1 µM; IC50 [2]: ~29 µM and 29 µM; EC50 [3]: 19.4 µM; selectivity index (SI; CC50/EC50) ([3]; MT-2 cells): 2.6; CC50 at 48 h ([4]; CC50): 49.7 µM

Question: What does the source list for `CN(C)CCOc1cccc(C(=O)c2ccccc2)c1` [Compound 2]?
Answer: Kd [1]: > 100 µM; IC50 [2]: > 50 µM; EC50 [3]: ~100 µM; CC50 at 48 h ([4]; CC50): ~100 µM
